We go through one compound from paper PMC5344956 (Cancer Chemotherapy and Pharmacology, 2017).

Each structure is given as a SMILES string.

A word on the AUC(0-t): it is the area under the concentration-time curve up to a stated or last time point. Broadly, the Tmax is the time from dosing to the highest level. One may read the half-life as how long it takes for the measured level to halve.

A short description of series [1]: Plasma pharmacokinetics of TRA, ponatinib and metabolites after a single oral 45-mg [14C]ponatinib dose. Here is the method:
The subject release criterion was defined as follows: the combined urine and fecal radioactivity excretion for two consecutive days should fall below 1% of the dose administered.
Detailed procedures on sample collection, storage, and shipment are described in Online Resource 1. […] Fecal homogenates were prepared by adding water (four times the feces weight) and homogenizing.
TRA analysis was carried out at ABC Laboratories. The radioactivity in plasma (duplicate per time point) and urine samples (triplicate per time point) was quantitated by direct counting in a Beckman LS6000SC or LS6500 liquid scintillation counter (PerkinElmer Life and Analytical Sciences, Boston, MA, USA). Whole blood (duplicate per time point) and fecal homogenate (triplicate per time point) samples were oxidized, and the resultant ^14CO2 was trapped in Carbosorb (Calgon Carbon Corporation, Pittsburgh, PA, USA) in combination with Permafluor, followed by liquid scintillation counting to determine the radioactivity. Individual samples were counted for 5 min for whole blood and fecal matrices, and 10 min for plasma and urine matrices. Predose blood, plasma, urine, and feces samples served as respective control samples to determine and subtract the background radioactivity in the analysis.
M14 was quantitated using a different LC/MS/MS method (Online Resource 2). The pharmacokinetic analysis was carried out using WinNonlin® v6.4 (Pharsight Corp., Mountain View, CA, USA).
Aliquots of 30 µl of calibration standards, quality controls, and incurred plasma samples were transferred into a 96-well plate. Then 150 µl of ice-cold acetonitrile containing 50 ng/ml of AP30376 (d6-AP24600, internal standard) were added. The 96-well plate was vortexed for 10 min and then centrifuged at 4750 rpm for 20 min at 4°C. 100 µl aliquots of the supernatants were transferred into another 96-well plate and the samples were analyzed by liquid chromatography tandem mass spectrometry.

Series [2] can be described thus: Metabolite profiling of plasma (HPLC-radiochromatography). Format: in vivo, human. Particulars: % of TRA. Here is the method: For each subject, a 0–24 h pooled plasma sample was prepared according to the scheme outlined in the literature. In addition, several pooled plasma samples across all subjects were prepared at these time points: 5, 10, 12, […], and 48 h, and every 24 h thereafter until 240 h.
All pooled 0–24, 5, 10, 12, and 24 h plasma samples were processed as follows. […] The samples were vortexed for 30 min and centrifuged at 4500g at 4 °C for 6 min. The supernatants were transferred into new polypropylene tubes and kept on ice. The resulting plasma protein pellets were extracted twice to ensure good recovery and the extracts were combined. The combined extracts were loaded onto Ostro sample preparation plates (Waters Corporation, Milford, MA, USA), dried, eluted with 0.2 mL of cold acetonitrile, and all eluates were collected and evaporated under nitrogen (TurboVap LV; Caliper Life Sciences, Hopkinton, MA, USA). The dry residues were reconstituted in 0.1 mL of methanol, and a 0.005-mL aliquot was removed for determination of radioactivity. The remainder of the supernatants were transferred to high-performance liquid chromatography (HPLC) vials and stored at −80 °C until analysis.
Pooled post-24-h plasma samples were extracted using a slightly modified procedure. […] Appropriate volumes of formic acid were added to achieve a final concentration of 1%. Then, the samples were warmed to 37 °C and loaded to preconditioned Oasis HLB cartridges (Waters Corporation, Milford, MA, USA). These columns were then washed with water, dried under vacuum, and eluted with methanol. The eluates were collected and evaporated under nitrogen. The dry residues were reconstituted in 0.1 mL of methanol, and a 0.005-mL aliquot was removed for determination of radioactivity. The remainder of the supernatants were transferred to HPLC vials and stored at −80 °C until analysis.
(§1) A Finnigan Surveyor HPLC system (Thermo Fisher Scientific Inc., San Jose, CA, USA), consisting of an LC pump plus an autosampler and a UV–Vis plus detector, was used mostly for profiling (except the post-24-h plasma samples, which were analyzed using a Dionex HPLC system). A Phenomenex® Gemini® C18, 5-μm, 3.0 × 100-mm column (Phenomenex Inc., Torrance, CA, USA) was used along with a C-12 guard column (4 × 2 mm). LC conditions were as follows: solvent A was 10 mM ammonium bicarbonate in water (pH 10.0) and solvent B was 100% methanol and the flow rate was 0.8 mL/min. The following gradient was employed (B%): 0–5 min (20%), 32 min (42%), 33 min (60%), 55 min (70%), 56–60 min (95%), and 62–70 min (20%).
(§2) Reconstituted solvent extracts (0.050–0.10 mL) of plasma, urine, or feces were injected onto the HPLC column. The post-column eluate was split after UV detection into two streams (0.64 and 0.16 mL/min). The 0.64-mL stream was diverted to a fraction collector (Gilson FX 204; Gilson Medical Electronics, Middleton, WI, USA) to be collected in 96-well plates at 0.16 min/well (ScintiPlates; PerkinElmer Life Sciences, Shelton, CT, USA), and the 0.16-mL stream was directed to the mass spectrometer. The solvent in the 96-well plates was removed at 40 °C using a Genevac evaporator (Genevac, Inc., Stone Ridge, NY, USA).
(§3) The radioactivity counts per minute (CPM) in each well was determined using a MicroBeta scintillation counter (PerkinElmer Life and Analytical Sciences). The resulting CPM vs. time data were processed using Excel (Microsoft Corporation, Seattle, WA, USA). The CPM in each well was background-subtracted (using the average CPM values of the blank region of the HPLC run). Radiochromatographic profiles were obtained by plotting the resulting net CPM values against time after injection. Radioactive peaks in the chromatographic profiles were identified, and the radioactivity in each peak was summed and reported as a percentage of TRA in the HPLC run.

A short description of series [3]: Metabolite profiling of feces (HPLC-radiochromatography). The following applies: 0–144 h pool; for % Distribution in matrix: % of fecal TRA. In kind it is in vivo, human. Here is the method:
One-gram samples of the fecal homogenates were transferred to 50-mL polypropylene tubes, extracted with 4 mL of methanol, and centrifuged (4500g). The resulting residues were extracted three more times (once with 2 mL of methanol and twice with 1 mL of methanol containing 1% formic acid) and centrifuged. All supernatants were combined and evaporated under nitrogen, and the residue was reconstituted with 0.5 mL of methanol, vortexed, sonicated, and centrifuged. A 0.010-mL aliquot of the supernatant was removed for determination of radioactivity, and the remainder of the supernatant was transferred to an HPLC vial and stored at −80 °C.
as §1, §2, §3

The test system of the next series is human liver microsomes. Put plainly: In vitro metabolism with human liver microsomes and CYP-specific chemical inhibitors (data not shown). Format: in vitro ADME. Particulars: CYP-specific chemical inhibitors.
The conditions of series [4]: co-administration of ketoconazole (potent CYP3A4 inhibitor) ref 11; cited from earlier work.
Where [5] appears, read: male, human, in vivo, po, 45 mg.

`Cc1ccc(C(=O)Nc2ccc(CN3CCN(C)CC3)c(C(F)(F)F)c2)cc1C#Cc1cnc2cccnn12.Cl` [Ponatinib, 3-(imidazo[1,2-b]pyridazin-3-ylethynyl)-4-methyl-N-(4-((4-methylpiperazin-1-yl)methyl)-3-(trifluoromethyl)phenyl)benzamide hydrochloride]: the “plasma level at 144 h postdose” value in series [1] (human plasma, 144 h postdose) was “at or below detectable limits”. The exposure AUC(0-t) in series [1] (setting [5]) was determined as 3.48 µM·h. Further, in series [1] (setting [5]), the Tmax is 5 h. The half-life in series [1] (setting [5]) is 27.4 h. In series [1] (male, human, plasma, oral, 45 mg), the concentration at 144 h was < 2.4 nM. In addition, the “% Distribution in plasma” value in series [2] (0–24 h pooled plasma) turned out to be 25.5%; in series [2] (5 h pooled plasma), 42.4%; in series [2] (10 h pooled plasma) it was 36.3%; in series [2] (12 h pooled plasma), 51.5%; in series [2] (36 h pooled plasma), 4.2%; in series [2] (48 h pooled plasma) it was 9.4%. For the same compound, the “% Distribution in plasma” value amounted to 12.8% in series [2] (72 h pooled plasma) and 13.2% in series [2] (96 h pooled plasma). Further, the “% of total radioactive dose” value is recorded as 20.5/2.8% in series [3] and 20.5% in series [3] (listed as ponatinib). The “% Distribution in matrix” value is 23.7/3.2% in series [3] and 23.7% in series [3] (listed as ponatinib). For the same compound, the “CYP enzymes that metabolize the compound” value with human liver microsomes is “metabolized mostly by CYP3A4 and to a lesser extent by CYP2D6 and CYP2C8”. Further, the “increase of AUC0–∞ on co-administration of ketoconazole” value in series [4] is on record as 47%. Besides, the “increase of C max on co-administration of ketoconazole” value in series [4] is 78%.
